Experimental data as given in US9560869B2, “Food composition comprising desferrichrysin” (NESTEC S.A., priority 2013, dated 2017).

Legend:
[1] = Colour change of fortified yoghurt during storage at 37° C. for 120 days (CIELAB); format: physicochemical; conditions: for colour change over time (in words): stored at 37° C. for 120 days
Protocol: (§1) Commercial yoghurt, Nestlé Jogolino™ Strawberry/Banana yoghurt containing 15% banana puree and 10% strawberry puree was iron fortified by the addition of different iron salts to 5 kg yoghurt as reported in the table below. The amounts were chosen to provide approximately 0.8 mg iron per 100 g yoghurt. […] Colour measurements were performed in 1×1 cm polystyrene cuvettes using an X-Rite ColorEye 7000A colorimeter. The colorimeter was set up with a D65 light source, 10 degree observer angle and with specular component included. The colour difference between the yoghurt with no iron salts and the iron fortified yoghurt was measured for each iron salt and expressed as ΔEab* using the CIELAB colour scale. 70 g samples of the fortified yoghurt samples described above were placed in 100 mL glass jars and stored at 37° C. for 120 days. Colour measurements were performed at a range of time intervals.

[2] = in vivo; cited from earlier work
[3] = Colour difference of iron fortified strawberry/banana yoghurt vs yoghurt with no iron salts after flash pasteurization (CIELAB); format: physicochemical
Protocol: as §1, with “scale.” for “scale. 70 g samples of the fortified yoghurt samples described above were placed in 100 mL glass jars and stored at 37° C. for 120 days. Colour measurements were performed at a range of time intervals.”

ΔEab* day 7 ([1]; stored at 37° C., vs colour immediately after pasteurization, day 7)	ΔEab* day 30 ([1]; stored at 37° C., vs colour immediately after pasteurization, day 30)	ΔEab* day 60 ([1]; stored at 37° C., vs colour immediately after pasteurization, day 60)	ΔEab* day 120 ([1]; stored at 37° C., vs colour immediately after pasteurization, day 120)	ΔEab* ([3]; colour difference vs yoghurt with no iron salts, approx. 0.8 mg iron per 100 g yoghurt, flash pasteurized at 105° C. for 2 minutes)	Molecule	colour change over time (in words) [1]	bioavailability of iron (in words) [2]	colour compared with yoghurt with no added iron (in words) ([3]; after flash pasteurization at 105° C. for 2 minutes)
1.03	1.32	3.77	6.46	1.57	Ferrichrysin	smaller than the yoghurts fortified by the other iron salts	good source of bioavailable iron	closest colour to the yoghurt with no added iron
–	–	–	–	–	O=S(=O)([O-])[O-].[Fe+2] [FeSO4 × H20, Ferrous sulphate, reference compound]	much greater colour changes	–	–
